According to US20160177324A1, “NOVEL PROTEIN AND GENE RELATED TO FLAVONOID O-METHYLTRANSFERASE (FOMT) AND THEIR USES THEREFORE” (INSTITUTE OF BOTANY, THE CHINESE ACADEMY OF SCIENCES, priority 2013, published 2016):
Where two headings read alike, the source gives them in different places.

Columns and labels:
PsFOMT [1] = assay: In vitro enzyme assay and kinetics of recombinant PsFOMT with flavonoid substrates; format: biochemical, Paeonia suffruticosa cv. 'Gunpohden'; parameters: key: —: no product detected; details: purified recombinant PsFOMT, 200 μM SAM, 1 mM MgCl2, pH 7.5, 35° C., substrate 5 to 200 μM, means (SE) of triplicate assays
PsFOMT [2] = assay: as above; format: biochemical, Paeonia suffruticosa cv. 'Gunpohden'; parameters: key to Vmax / Kcat × 10 / Kcat/Km / Specific Activity: —: no product detected; details: for methylation of substrate by PsFOMT / catalytical efficiency of PsFOMT fusion protein for substrate: in the presence of SAM; for Kcat × 10 / Specific Activity / Vmax / Kcat/Km: purified recombinant PsFOMT, 200 μM SAM, 1 mM MgCl2, pH 7.5, 35° C., means (SE) of triplicate assays
Excerpt: Full length FOMTs were amplified by primers SEQ No.7 & 8 in which restriction enzyme NdeI and BamHI site were introduced to the 5'-end and 3'-end, respectively. The DNA fragment of interest was ligated into the […]3 vector, and then the recombinant plasmid was transducted into DH5a. The FOMT cDNAs were sequenced to verify that no mutation occurred. The recombinant plasmid was isolated and digested with Ndel and BamHI. Subsequently, the fragment was ligated to the NdeI and BamHI excised expression vector pMAL-[…] with a MBP tag to yield pMAL-PsFOMT and pMAL-PtFOMT (FIG. 3). The correct construction tested by sequencing was introduced into E. coli strain BL21. E. coli harboring pMAL-PsFOMT and pMAL-PtFOMT were cultivated in 2 mL LB liquid medium containing glucose, supplemented by 100 μg/mL ampicillin until OD600 reached 0.4-0.5. After addition of isopropyl β-D-thiogalactopyranoside (IPTG) to a final concentration of 0.1 mM, the cells were further cultured at 16° C. for 20 h. Harvest the cells by centrifugation and discard the supernatant. The cells were resuspended in column buffer (20 mM Tris-HCl, 200 mM NaCl 1 mM EDTA, 10 mM β-mercaptoethanol, pH 7.4), and disrupted by sonication in an ice-water bath (Lan, T., et al., Extensive functional diversification of the Populus glutathione S-transferase supergene family. Plant Cell, 2009. 21(12): p. 3749-3766.). In each case, the homogenate was then subjected to centrifugation at 10,000 g for 10 min at 4° C. The resultant particulate material and a small portion of the supernatant were analyzed by SDS-PAGE. The rest of the supernatant was loaded onto an amylose resin column (NEB) that had been pre-equilibrated with column buffer. The overexpressed fusion protein bound to the column was eluted with column buffer plus 10 mM maltose. The concentration of purified fusion protein was detected by UV absorbance at 280 nm. As a control, BL21 cells transformed with an empty pMAL-[…] vector were assayed. The purified protein was stored at -80° C. mixed with 10% glycerol. The reaction system was according to Hugueney et al. with some modification (Hugueney, P., et al., A novel cation-dependent O-methyltransferase involved in anthocyanin methylation in grapevine. Plant Physiology, 2009. 150(4): p. 2057-2070.). Purified recombinant FOMT (2 μg) was assayed in a final volume of 200 μL containing 200 μM SAM, 1 mM MgCl2, 14 mM β-mercaptoethanol, 100 mM Tris, pH 7.5, and 20 μM flavonoid substrates. Incubation was performed at 35° C. and stopped with 200 μL methanol containing 2% formic acid. […] Reaction product was analyzed by a Dionex HPLC system (Sunnyvale, Calif.), equipped with a P680 HPLC pump, an UltiMate 3000 autosampler, a TCC-100 thermostated column compartment and a Dionex PDA100 photodiode array detector. The analytical column was C18 column of ODS 80Ts QA (150 mm×4.6 mm, 5 μm i.d., Tosoh, Tokyo) protected with a C18 guard cartridge (Shanghai ANPEL Scientific Instrument, Shanghai). The following solvent and gradient were used: A, 10% aqueous formic acid; B, methanol; constant gradient from 10 to 36% B within 15 min and back to 10% B in 3 min; the flow rate was 0.8 mL min^-1; Column temperature was maintained at 35° C.; 20 μL of analyte was injected. Chromatograms were obtained at 525 nm for anthocyanins and 350 nm for other flavonoids, and photodiode array spectra were recorded from 200 to 800 nm. Km and Vmax values were calculated from Lineweaver-Burk plots.

PtFOMT = assay: In vitro enzymatic activity of recombinant PtFOMT with potential substrates; format: biochemical, Paeonia tenuifolia; details: purified recombinant PtFOMT; means ± SE of triplicate assays
Excerpt: Full length FOMTs were amplified by primers SEQ No.7 & 8 in which restriction enzyme NdeI and BamHI site were introduced to the 5′-end and 3′-end, respectively. The DNA fragment of interest was ligated into the pEASY-T3 vector, and then the recombinant plasmid was transducted into DH5a. The FOMT cDNAs were sequenced to verify that no mutation occurred. The recombinant plasmid was isolated and digested with Ndel and BamHI. Subsequently, the fragment was ligated to the NdeI and BamHI excised expression vector pMAL-c5X with a MBP tag to yield pMAL-PsFOMT and pMAL-PtFOMT (FIG. 3). The correct construction tested by sequencing was introduced into E. coli strain BL21. E. coli harboring pMAL-PsFOMT and pMAL-PtFOMT were cultivated in 2 mL LB liquid medium containing glucose, supplemented by 100 μg/mL ampicillin until OD600 reached 0.4-0.5. After addition of isopropyl β-D-thiogalactopyranoside (IPTG) to a final concentration of 0.1 mM, the cells were further cultured at 16° C. for 20 h. Harvest the cells by centrifugation and discard the supernatant. The cells were resuspended in column buffer (20 mM Tris-HCl, 200 mM NaCl 1 mM EDTA, 10 mM β-mercaptoethanol, pH 7.4), and disrupted by sonication in an ice-water bath (Lan, T., et al., Extensive functional diversification of the Populus glutathione S-transferase supergene family. Plant Cell, 2009. 21(12): p. 3749-3766.). In each case, the homogenate was then subjected to centrifugation at 10,000 g for 10 min at 4° C. The resultant particulate material and a small portion of the supernatant were analyzed by SDS-PAGE. The rest of the supernatant was loaded onto an amylose resin column (NEB) that had been pre-equilibrated with column buffer. The overexpressed fusion protein bound to the column was eluted with column buffer plus 10 mM maltose. The concentration of purified fusion protein was detected by UV absorbance at 280 nm. As a control, BL21 cells transformed with an empty pMAL-c5X vector were assayed. The purified protein was stored at −80° C. mixed with 10% glycerol.
The reaction system was according to Hugueney et al. with some modification (Hugueney, P., et al., A novel cation-dependent O-methyltransferase involved in anthocyanin methylation in grapevine. Plant Physiology, 2009. 150(4): p. 2057-2070.). Purified recombinant FOMT (2 μg) was assayed in a final volume of 200 μL containing 200 μM SAM, 1 mM MgCl2, 14 mM β-mercaptoethanol, 100 mM Tris, pH 7.5, and 20 μM flavonoid substrates. Incubation was performed at 35° C. and stopped with 200 μL methanol containing 2% formic acid. For enzyme kinetic studies, purified FOMT was incubated based on the above condition with the exception that a range of substrate concentrations from 5 to 200 μM were used for Km determination. Reaction product was analyzed by a Dionex HPLC system (Sunnyvale, Calif.), equipped with a P680 HPLC pump, an UltiMate 3000 autosampler, a TCC-100 thermostated column compartment and a Dionex PDA100 photodiode array detector. The analytical column was C18 column of ODS 80Ts QA (150 mm×4.6 mm, 5 μm i.d., Tosoh, Tokyo) protected with a C18 guard cartridge (Shanghai ANPEL Scientific Instrument, Shanghai). […] Chromatograms were obtained at 525 nm for anthocyanins and 350 nm for other flavonoids, and photodiode array spectra were recorded from 200 to 800 nm. Km and Vmax values were calculated from Lineweaver-Burk plots.

[3] = system: cyanidin 3-glucoside 3′-O-methyltransferase (CGMT); details: partially purified from Vitis vinifera cell suspension; Bailly et al. 1997; cited from earlier work

| Km (PsFOMT [1]; read-out: Km) | Kcat × 10 (PsFOMT [2]) | Specific Activity (PsFOMT [2]) | Vmax (PsFOMT [2]) | Km (PsFOMT [1]) | Kcat/Km (PsFOMT [2]) | catalytical efficiency of PsFOMT fusion protein for substrate (PsFOMT [2]) | Structure (SMILES) | methylation of substrate by PsFOMT (PsFOMT [2]) | Specific Activity (PtFOMT) | activity of CGMT with substrate [3] |
| --- | --- | --- | --- | --- | --- | --- | --- | --- | --- | --- |
| 4.33 µM | 9.83 (0.12) s^−1 | 142 (2) pkat mg^−1 | 1.77 (0.02) nM s^−1 |  |  |  | O=c1c(O)c(-c2ccc(O)c(O)c2)oc2cc(O)cc(O)c12 [Quercetin] | can be methylated | 17.58 ± 0.57 pkat mg^−1 |  |
|  | — | — | — | — | — |  | O=C1C[C@@H](c2ccc(O)cc2)Oc2cc(O)cc(O)c21 [Naringenin] |  |  |  |
| 4.11 µM | 94.72 (1.49) s^−1 | 1364 (21) pkat mg^−1 | 17.05 (0.27) nM s^−1 |  |  |  | OC[C@H]1O[C@@H](Oc2cc3c(O)cc(O)cc3[o+]c2-c2cc(O)c(O)c(O)c2)[C@H](O)[C@@H](O)[C@@H]1O [Delphinidin 3-O-glucoside] | sequentially methylate 3′- and 5′-OH at B ring | 21.50 ± 0.10 pkat mg^−1 |  |
| 31.7 µM | 217.90 (36.48) s^−1 | 3138 (525) pkat mg^−1 | 39.22 (6.57) nM s^−1 |  |  |  | OC[C@H]1O[C@@H](Oc2cc3c(O)cc(O)cc3[o+]c2-c2ccc(O)c(O)c2)[C@H](O)[C@@H](O)[C@H]1O [Cyanidin 3-O-galactoside] | can be methylated |  |  |
|  | — | — | — | — | — |  | O=c1c(O)c(-c2ccc(O)cc2)oc2cc(O)cc(O)c12 [Kaempferol] |  |  |  |
|  | — | — | — | — | — |  | O=C(O)/C=C/c1ccc(O)c(O)c1 [Caffeic acid] |  |  |  |
|  | — | — | — | — | — |  | O=c1cc(-c2ccc(O)c(O)c2)oc2cc(O)cc(O)c12 [Luteolin] |  |  |  |
|  |  |  |  |  |  |  | O=C(/C=C/c1ccc(O)cc1)OC[C@H]1O[C@@H](Oc2cc3c(O)cc(=O)cc-3oc2-c2ccc(O)c(O)c2)[C@H](O)[C@@H](O)[C@@H]1O [cyanidin 3-p-coumaroyl glucoside] |  |  | no activity |
|  | — | — | — | — | — |  | OC[C@H]1O[C@@H](Oc2cc3c(O)cc(O)cc3[o+]c2-c2ccc(O)cc2)[C@H](O)[C@@H](O)[C@@H]1O [Pelargonidin 3-O-glucoside] |  |  |  |
| 1.06 µM | 127.70 (1.05) s^−1 | 1788 (15) pkat mg^−1 | 17.88 (0.25) nM s^−1 |  |  | high catalytical efficiency | OC[C@H]1O[C@@H](Oc2cc3c(O[C@@H]4O[C@H](CO)[C@@H](O)[C@H](O)[C@H]4O)cc(O)cc3[o+]c2-c2ccc(O)c(O)c2)[C@H](O)[C@@H](O)[C@@H]1O [Cyanidin 3,5-di-O-glucoside] |  | 29.60 ± 3.47 pkat mg^−1 |  |
| 1.76 µM | 161.99 (0.73) s^−1 | 2314 (11) pkat mg^−1 | 11.57 (0.05) nM s^−1 |  |  | high catalytical efficiency | OC[C@H]1O[C@@H](Oc2cc3c(O)cc(O)cc3[o+]c2-c2ccc(O)c(O)c2)[C@H](O)[C@@H](O)[C@@H]1O [Cyanidin 3-O-glucoside] |  | 37.98 ± 1.05 pkat mg^−1 |  |

| Structure (SMILES) | Km (PsFOMT [1]; read-out: Km) | Kcat × 10 (PsFOMT [2]) | Specific Activity (PsFOMT [2]) | Vmax (PsFOMT [2]) | Km (PsFOMT [1]) | Kcat/Km (PsFOMT [2]) | catalytical efficiency of PsFOMT fusion protein for substrate (PsFOMT [2]) | methylation of substrate by PsFOMT (PsFOMT [2]) | Specific Activity (PtFOMT) | activity of CGMT with substrate [3] |
| --- | --- | --- | --- | --- | --- | --- | --- | --- | --- | --- |
| C[C@@H]1O[C@@H](OC[C@H]2O[C@@H](Oc3c(-c4ccc(O)c(O)c4)oc4cc(O)cc(O)c4c3=O)[C@H](O)[C@@H](O)[C@@H]2O)[C@H](O)[C@H](O)[C@H]1O [Quercetin 3-O-rutinoside] | 12.3 µM | 192.11 (4.41) s^−1 | 2744 (135) pkat mg^−1 | 27.44 (1.63) nM s^−1 |  |  |  | can be methylated | 30.20 ± 0.24 pkat mg^−1 |  |
